Columns and labels:
HLA-E = HLA-E (Homo sapiens, UniProt P13747); assay: HLA-E surface stabilization assay with RMA-S/HLA-E cells; format: cell-based; conditions: RMA-S/HLA-E cells incubated with 30 μM peptide, anti-HLA-E antibody
Description: Assessment of peptide-HLA-E binding via HLA-E surface stabilization assay with RMA-S/HLA-E cells incubated with 30 μM peptide. HLA-E expression is detected with an anti-HLA-E antibody.
To do so, various sequence variants were assessed for their ability to stabilize surface-expressed HLA-E on RMA-S/HLA-E cells, a TAP-deficient mouse tumor cell line engineered to express HLA-E and human β2M (FIG. 3).

NKG2A+/NKG2C− NK cells = assay: NK cell stimulation assay with peptide-loaded HLA-E expressing target cells, NKG2A+ cells; format: cell-based, human; conditions: NK cell degranulation and IFN-g, TNF and CCL3 production; compared to LIL, LFL and PQS controls
Description: (§1) FIG. 4: NK cell stimulation assays. Assessment of effects of peptides on NK cell activity through incubation of NK cells, peptides, and a) K562/HLA-E or b) RMA-S/HLA-E target cells. Peptides were derived from the human or CMV proteomes or are included as positive (LFL, LIL) or negative controls (PQS). Replicates for individual peptides are from different donors, with solid black lines indicating mean values.
(§2) Cell-based activation assays were performed with primary NK cells (FIG. 4). Therein, NK cells were co-incubated with K562 peptide-loaded HLA-E expressing cells, as described previously^14. The K562 human […] cell line is a common tool for the analysis of NK cell cytotoxicity and activation, as said cells facilitate the analysis of both NKG2C-mediated activation and NKG2A-mediated inhibition. The PQS peptide served as a negative control.
(§3) Peptides that bound and stabilized HLA-E in the cell-based stability experiment (FIG. 3) were selected and assessed regarding their effect on NKG2A+/NKG2C− or NKG2A−/NKG2C+ NK cell activity. The effect was quantified by the ability to induce NK cell degranulation and IFN-g, TNF and CCL3 production, compared to […] (“LIL”; SEQ ID NO: 4) and […] (“LFL”; SEQ ID NO: 2) peptides (class I MHC-derived) as positive control, and […] (“PQS”; (SEQ ID NO: 53) as negative control peptide (FIG. 4). NKG2A/NKG2C NK cells served as an internal control. NKG2A/NKG2C NK cells have been shown previously to not be affected by peptide-HLA-E complexes.

NKG2A−/NKG2C+ NK cells = assay: NK cell stimulation assay with peptide-loaded HLA-E expressing target cells, NKG2C+ cells; format: cell-based, human; conditions: NK cell degranulation and IFN-g, TNF and CCL3 production; compared to LIL, LFL and PQS controls
Description: as §1, §2, §3

Sequence of HLA-E (P13747 22-358): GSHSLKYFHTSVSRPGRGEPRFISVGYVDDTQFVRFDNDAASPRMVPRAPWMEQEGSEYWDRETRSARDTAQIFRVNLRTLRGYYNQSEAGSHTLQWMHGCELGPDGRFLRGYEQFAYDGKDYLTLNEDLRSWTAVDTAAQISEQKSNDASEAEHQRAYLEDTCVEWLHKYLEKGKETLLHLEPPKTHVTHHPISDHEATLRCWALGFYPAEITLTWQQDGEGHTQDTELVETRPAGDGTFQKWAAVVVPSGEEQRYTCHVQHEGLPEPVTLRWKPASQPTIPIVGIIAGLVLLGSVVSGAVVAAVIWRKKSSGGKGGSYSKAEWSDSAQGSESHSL
Sequence of HLA-E (P61769 21-119, further chain): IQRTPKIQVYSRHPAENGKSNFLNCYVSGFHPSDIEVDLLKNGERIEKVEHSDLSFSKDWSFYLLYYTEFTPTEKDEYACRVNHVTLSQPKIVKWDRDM

Sequence	stabilization of HLA-E surface expression (peptide-HLA-E binding) (HLA-E)	inhibitory effect on NKG2A+ cells (NKG2A+/NKG2C− NK cells)	activating effect on NKG2C+ cells (NKG2A−/NKG2C+ NK cells)
FLPNRSLLF	strong stabilization of HLA-E	moderate inhibitory effects	strong activating effects
ILTDRSLWL	strong stabilization of HLA-E	moderate inhibitory effects	strong activating effects
NMPARTVLF	strong stabilization of HLA-E	strong inhibitory effect	strong activating effect
QMPSRSLLF	strong stabilization of HLA-E	moderate inhibitory effects	strong activating effects
RMPPRSVLL		strong inhibitory effect	strong activating effect
TAPARTMFL	strong stabilization of HLA-E		
TLPERTLYL	strong stabilization of HLA-E	strong inhibitory effect	strong activating effect
TLPKRGLFL	strong stabilization of HLA-E	moderate inhibitory effects	strong activating effects
VLPHRTQFL	strong HLA-E binding	strong inhibitory effect	strong activating effect
VMADKSIFY [OR5D14, reference compound]	no stabilizing effects		
VMGDRSVLY [EMC1, reference compound]	no stabilizing effects		
VMPGRTLCF	strong stabilization of HLA-E	strong inhibitory effect	strong activating effect
VMPPRTLLL	strong stabilization of HLA-E	strong inhibitory effect	strong activating effect
WNRLFPPLR [UBAC2275-279, reference compound]	no stabilizing effects		

Source: patent publication US20260286356A1, “NUCLEIC ACID VACCINE FOR ACTIVATING NKG2C+ NATURAL KILLER CELLS” (priority 2023, published 2026)
